According to patent US11278555B2, “Combinational therapies for treatment of cancer comprising a bacteriochlorophyll derivative” (Yeda Research and Development Co. Ltd., priority 2016, dated 2022):

Test system: splenic immune cells of 4T1-bearing mice
Test: FACS profile of splenic immune cell populations in 4T1-bearing mice after STL-6014 PDT and Gemzar
Assay type: in vivo
Description: • (i) Bacteriochlorophyll Derivatives—The Bchl derivatives and RGD-conjugates thereof were provided by Steba Biotech (Rehovot, Israel). […] Concentration was verified by spectrophotometric measurement. STL-7012 was provided as dipotassium salt. Working solution was prepared by dissolving STL-7012 K^+ salt in 5% mannitol solution (1 mg/ml). […] WST11 was supplied as a powder and kept in the dark at −20° C. Stock was prepared by dissolving WST11 in DDW containing 5% glucose and 0.67% mannitol, aliquoted and lyophilized. Working solution was reconstituted with DDW and the concentration of solution was confirmed spectrophotometrically. Alternatively, Clinical WST11 (batch: P00611, and 10-130611) was supplied as lyophilized formulation. Material was dissolved in 5% dextrose, aliquoted and stored at −20° C. At the day of treatment the aliquot was thawed, filtered and the concentration of solution was confirmed spectrophotometrically. • (ii) Chemotherapeutic drugs preparation and storage—Gemcitabine (GEM, Gemzar®, Lilly) was purchased from a local pharmacy as a powder, dissolved in saline to a concentration of 38 mg/ml, aliquoted and stored at −20° C. Aliquots were thawed, diluted with saline to a desired concentration and used on the same day at a dose of 75 mg/kg. Cyclophosphamide (CTX, Endoxan®, Baxter Oncology Gmbh, Germany) was purchased from a local pharmacy. A stock solution of 20 mg/ml was prepared by dissolving in 0.9% NaCl, aliquoted and stored at −20° C. Aliquots were thawed, diluted with saline if needed to a desired concentration and used on the same day prepared at indicated doses. • (iii) Murine cell lines—Mammary luciferase (luc)-labeled 4T1 cell line (4T1-Luc) was a kind gift from Dr. Zvi Granot (Faculty of Medicine, The Hebrew University of Jerusalem, Israel); melanoma B16-F10 cell line was obtained from the American Type Culture Collection (ATCC, Manassas, Va.); bladder MB49 cell line was a kind gift from James Allison (MSKCC, New York, USA), and luc-labeled MB49-cell line was established using the murine stem cell virus (MSCV)-puromycin-luc-GFP construct (kindly provided by Dr. Emily Cheng, Human Oncology and Pathogenesis Program, MSKCC). 4T1 and MB49 cells were maintained in DMEM medium and B16-F10 cells in RPMI medium supplemented with 1 mmol/L sodium pyruvate, 10% fetal calf serum (FCS), 250 μg/ml hygromycin, 0.06 mg/ml penicillin and 0.1 mg/ml streptomycin. The cells were grown as monolayer at 37° C. in a humidified atmosphere (5% CO2, 95% air). • (iv) Murine tumor models—Female, Balb/c mice (6-8 week old) were grafted either subcutaneously (s.c.) into the right hind leg or orthotopically with 1×10^6 4T1 cells suspended in 50 or 1000 PBS. For the rechallenge study, 2×10^5 4T1 cells were orthotopically grafted. For bladder cancer model, 5×10^4 of MB49 or MB49-luciferase cell line were s.c. injected into the right flank of C57B/6 male mice (7-8 weeks old, Taconic, Hudson, N.Y.) 15 days prior to VTP treatment. For the efficacy study of VTP in immune compromised mice, the same number of MB49 cells was injected in the flank of Rag^−/− on C57B/6 background or C57B/6 male mice (7-8 week old, Jackson Laboratory, Bar Harbor, Me.). […] Whole body imaging of luciferase-transfected tumors and metastases were recorded five minutes following 75 mg Kg^−1 intraperitoneal (i.p.) injection of D-luciferin with respective filter sets. • (vi) PDT treatment protocol: 4T1-Luc cells were grafted in the mammary pad of Balb/c mice. […]

Nc1ccn([C@@H]2O[C@H](CO)[C@@H](O)C2(F)F)c(=O)n1 [Gemzar, Gemcitabine]
percentage of G-MDSC/neutrophils and M-MDSC in spleen compared to control (first week post treatment): significantly reduced | effect on Treg populations in spleen compared with controls (mouse, in vivo): Much smaller effects | impact on MDSCs in spleen relative to control (second week post treatment): diminished
